# Source: patent publication US9718790B2, “Triazine derivative and pharmaceutical composition having an analgesic activity comprising the same” (SHIONOGI & CO., LTD., priority 2010, dated 2017)
# Target: human P2X3 receptor (Homo sapiens (Human), UniProt P56373)
# Experiment: Evaluation of human P2X3 receptor inhibitory activity (Fluo-3 calcium fluorescence, FDSS 3000, ATP stimulation);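 note: stimulus was 50 nM ATP with fluorescence followed for 3 min, and the response per well was peak post-ATP fluorescence divided by the reading at measurement start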
# Type: cell-based
# Conditions: C6BU-1 cells stably expressing human P2X3 receptor
# Sequence of human P2X3 receptor (P56373 whole entry): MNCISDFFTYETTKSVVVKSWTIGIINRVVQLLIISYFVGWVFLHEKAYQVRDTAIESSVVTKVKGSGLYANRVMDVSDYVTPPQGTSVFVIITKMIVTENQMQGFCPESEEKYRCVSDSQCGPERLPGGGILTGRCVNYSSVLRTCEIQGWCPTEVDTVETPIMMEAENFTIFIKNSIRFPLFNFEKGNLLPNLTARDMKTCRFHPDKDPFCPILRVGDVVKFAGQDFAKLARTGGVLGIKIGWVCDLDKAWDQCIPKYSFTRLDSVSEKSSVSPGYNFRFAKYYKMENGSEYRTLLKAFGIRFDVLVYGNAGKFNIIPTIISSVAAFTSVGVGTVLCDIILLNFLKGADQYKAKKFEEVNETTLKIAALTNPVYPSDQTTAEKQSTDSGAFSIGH
row,Compound,IC50
1,CCOC(=O)CC(C)(C)n1c(=O)[nH]/c(=N\c2ccc(OC(C)C)c(F)c2)n(Cc2ccc(Cl)cc2)c1=O [Compound I-0822],26 nM
2,O=C(O)Cn1c(=O)[nH]/c(=N\c2ccc(Oc3ccnc(O)c3)cc2)n(Cc2ccc(Cl)cc2)c1=O [Compound I-1932],95 nM
3,CC[C@@H](CC(=O)OC)n1c(=O)[nH]/c(=N\c2ccc(OC(C)C)c(C)c2)n(Cc2ccc(Cl)cc2)c1=O [Compound I-0782],192 nM
4,Cc1ccc(Cn2c(=O)n(CCC(=O)O)c(=O)[nH]/c2=N\c2ccc(OC3CCC3)c(Cl)c2)cc1 [Compound I-1332],54 nM
5,CCn1c(=O)[nH]/c(=N\c2ccc(Oc3nc(OC)nc(OC)n3)cc2)n(Cc2ccc(Cl)cc2)c1=O [Compound I-2220],37 nM
6,CCOC(=O)c1csc(Oc2ccc(/N=c3\[nH]c(=O)n(CC)c(=O)n3Cc3ccc(Cl)cc3)cc2)n1 [Compound I-2191],5 nM
7,CCn1c(=O)[nH]/c(=N\c2ccc(Oc3ccc(C(=O)O)o3)cc2)n(Cc2ccc(Cl)cc2)c1=O [Compound I-2152],41 nM
8,COC(=O)[C@H](C)[C@H](C)n1c(=O)[nH]/c(=N\c2ccc(CC(C)C)c(OC)c2)n(Cc2ccc(Cl)cc2)c1=O [Compound I-1363],56 nM
9,CC(C)Oc1ccc(/N=c2\[nH]c(=O)n(CC(=O)OCC3CCOCC3)c(=O)n2Cc2ccc(Cl)cc2)cc1Cl [Compound I-0667],20 nM
10,CCOC(=O)CCn1c(=O)[nH]/c(=N\c2ccc(CC(C)C)c(C)c2)n(Cc2ccc(C)cc2)c1=O [Compound I-1216],13 nM
11,COC(=O)[C@@H](C)Cn1c(=O)[nH]/c(=N\c2ccc(NS(C)(=O)=O)cc2)n(Cc2ccc(C)cc2)c1=O [Compound I-1416],141 nM
12,COc1cc(/N=c2\[nH]c(=O)n([C@@H](C)[C@@H](C)C(=O)O)c(=O)n2Cc2ccc(C)cc2)ccc1CC(C)C [Compound I-1367],14 nM
13,Cc1ccc(Cn2c(=O)n(CCC(=O)O)c(=O)[nH]/c2=N\c2ccc(OC(C)C)cc2C)cc1 [Compound I-2048],491 nM
14,COC(=O)[C@H](C)[C@H](C)n1c(=O)[nH]/c(=N\c2ccc(OC3CCC3)c(C)c2)n(Cc2ccc(Cl)cc2)c1=O [Compound I-1403],50 nM
15,Cc1ccc(Cn2c(=O)n(C[C@H](C)C(=O)O)c(=O)[nH]/c2=N\c2ccc(CC(C)C)c(F)c2)cc1 [Compound I-1256],18 nM
16,COc1cc(/N=c2\[nH]c(=O)n(CC3COC(C)(C)OC3)c(=O)n2Cc2ccc(Cl)cc2)ccc1OC(C)C [Compound I-1984],9 nM
17,CCCn1c(=O)[nH]/c(=N\c2ccc(Oc3ccc(C(N)=O)nc3)cc2)n(Cc2ccc(Cl)cc2)c1=O [Compound I-2203],1 nM
18,Cc1ccc(Cn2c(=O)n(C)c(=O)[nH]/c2=N\c2ccc(Oc3cncc(C(=O)O)c3)cc2)cc1 [Compound I-2121],21 nM
19,CNC(=O)CCn1c(=O)[nH]/c(=N\c2ccc3[nH]c(C)c(C)c3c2)n(Cc2ccc(Cl)cc2)c1=O [Compound I-1967],8 nM
20,Cc1ccc(Oc2ccc(/N=c3\[nH]c(=O)n([C@H](C)[C@H](C)C(=O)O)c(=O)n3Cc3ccc(Cl)cc3)cc2)cn1 [Compound I-1389],12 nM
21,O=C(O)Cn1c(=O)[nH]/c(=N\c2ccc(OC3CCC3)cc2)n(Cc2ccc(Cl)cc2)c1=O [Compound I-1943],258 nM

# Same assay, conditions: C6BU-1 cells stably expressing human P2X3 receptor, Fluo-3 fluorescence, FDSS 3000
row,Compound,IC50
1,Cc1nc2ccc(/N=c3\[nH]c(=O)n(CC(=O)NCCO)c(=O)n3Cc3ccc(Cl)cc3)cc2s1 [Compound I-1661],6 nM
2,COC(=O)[C@@H](C)Cn1c(=O)[nH]/c(=N\c2cccc(Br)c2)n(Cc2ccc(C)cc2)c1=O [Compound I-1077],64 nM
3,C[C@@H](C(=O)O)[C@H](C)n1c(=O)[nH]/c(=N\c2ccc3c(c2)CCCO3)n(Cc2ccc(Cl)cc2)c1=O [Compound I-1820],204 nM
4,Cc1ccc(Cn2c(=O)n(CC3(C(=O)O)CC3)c(=O)[nH]/c2=N\c2ccc(OCC3CC3)c(Cl)c2)cc1 [Compound I-0976],69 nM
5,COC(=O)[C@H](C)[C@H](C)n1c(=O)[nH]/c(=N\c2ccc(OC(C)C)c(Cl)c2)n(Cc2ccc(C)cc2)c1=O [Compound I-0928],14 nM
6,COC(=O)[C@@H](C)Cn1c(=O)[nH]/c(=N\c2ccc(OC(C)C)c(C#N)c2)n(Cc2ccc(C)cc2)c1=O [Compound I-0951],33 nM
7,CCc1nc2ccc(/N=c3\[nH]c(=O)n(CCC(=O)NS(C)(=O)=O)c(=O)n3Cc3ccc(Cl)cc3)cc2s1 [Compound I-1875],13 nM
8,Cc1ccc(Cn2c(=O)n(C[C@H](C)C(=O)O)c(=O)[nH]/c2=N\c2ccc(Oc3cccnc3)cc2)cc1 [Compound I-1123],14 nM
9,C[C@@H](C(=O)O)[C@H](C)n1c(=O)[nH]/c(=N\c2ccc3sccc3c2)n(Cc2ccc(Cl)cc2)c1=O [Compound I-1590],998 nM
10,CC(=O)Nc1nc2ccc(/N=c3\[nH]c(=O)n([C@@H](C)[C@@H](C)C(=O)O)c(=O)n3Cc3ccc(Cl)cc3)cc2s1 [Compound I-1793],984 nM
11,Cc1ccc(Cn2c(=O)n(C[C@H](C)C(=O)O)c(=O)[nH]/c2=N\c2ccc(OC3CCOCC3)nc2)cc1 [Compound I-1120],534 nM
12,COC(=O)[C@@H](C)Cn1c(=O)[nH]/c(=N\c2ccc(C=C(C)C)c(F)c2)n(Cc2ccc(C)cc2)c1=O [Compound I-1171],25 nM
13,COC(=O)CCn1c(=O)[nH]/c(=N\c2cc(-c3ccncc3)c[nH]c2=O)n(Cc2ccc(C)cc2)c1=O [Compound I-1893],178 nM
14,Cc1ccc(Cn2c(=O)n([C@@H](C)[C@@H](C)C(=O)O)c(=O)[nH]/c2=N\c2ccc(OC(C)C)c(F)c2)cc1 [Compound I-0974],29 nM
15,CCc1oc2ccc(/N=c3\[nH]c(=O)n(CC(C)(C)C(=O)OC)c(=O)n3Cc3ccc(C)cc3)cc2c1C [Compound I-1575],9 nM
16,CCn1c(=O)[nH]/c(=N\c2ccc(Oc3ccnc(C(=O)NC)c3)cc2)n(Cc2ccc(Cl)cc2)c1=O [Compound I-1717],2 nM
17,COC(=O)[C@@H](C)Cn1c(=O)[nH]/c(=N\c2cccc(SC)c2)n(Cc2ccc(C)cc2)c1=O [Compound I-1153],71 nM
18,CC[C@@H](C)Oc1ccc(/N=c2\[nH]c(=O)n(C[C@H](C)C(=O)O)c(=O)n2Cc2ccc(Cl)cn2)cc1Cl [Compound I-1626],18 nM
19,CCOC(=O)CCn1c(=O)[nH]/c(=N\c2ccc(OC(CC)CC)cc2)n(Cc2ccc(C)cc2)c1=O [Compound I-1054],18 nM
20,CCOc1ccc(/N=c2\[nH]c(=O)n([C@@H](C)[C@@H](C)C(=O)OC)c(=O)n2Cc2ccc(C)cc2)cc1Cl [Compound I-0966],17 nM
21,CCC[C@H](C)Oc1ccc(/N=c2\[nH]c(=O)n(CCC(=O)OCC)c(=O)n2Cc2ccc(C)cc2)cc1 [Compound I-1052],19 nM

# Same assay, conditions: human P2X3 receptor, Test Example 1
row,Compound,IC50
1,"CCc1ccc(Cn2c(=O)n(C[C@H](C)C(=O)OC)c(=O)[nH]/c2=N\c2ccc(OC(C)C)c(C)c2)cc1 [Compound I-0894, (S)-1-(4-ethylbenzyl)-6-(3-mehyl-4-isopropoxyphenylimino)-3-(2-methoxycarbonylpropyl)-1,3,5-triazinane-2,4-dion]",28 nM
2,O=C(O)Cn1c(=O)[nH]/c(=N\c2ccc(Oc3cccc(F)n3)cc2)n(Cc2ccc(Cl)cc2)c1=O [Compound I-2564],269 nM
3,Cc1nc2ccc(/N=c3\[nH]c(=O)n(CC4(C(=O)O)CC4)c(=O)n3Cc3ccc(Cl)cc3)cc2s1 [Compound I-1552],15 nM
4,CCn1c(=O)[nH]/c(=N\c2ccc(Oc3ccon3)cc2)n(Cc2ccc(Cl)cc2)c1=O [Compound I-2357],12 nM
5,"C=Cc1ccc(Cn2c(=O)n(C[C@H](C)C(=O)OC)c(=O)[nH]/c2=N\c2ccc(OC(C)C)c(C)c2)cc1 [Compound I-0892, (S)-1-(4-vinylbenzyl)-6-(3-mehyl-4-isopropoxyphenylimino)-3-(2-methoxycarbonylpropyl)-1,3,5-triazinane-2,4-dion]",18 nM
6,CCn1c(=O)[nH]/c(=N\c2ccc(Oc3nc(C(N)=O)cs3)cc2)n(Cc2ccc(Cl)cc2)c1=O [Compound I-2608],6 nM
7,Cn1c(=O)[nH]/c(=N\c2ccc(Oc3cccc(C#N)n3)cc2)n(C[C@H]2CC[C@H](C)CC2)c1=O [Compound I-2446],1 nM
8,COC(=O)[C@@H](C)Cn1c(=O)[nH]/c(=N\c2ccc(OCC3CC3)cc2)n(Cc2ccc(C)cc2)c1=O [Compound I-0834],18 nM
9,CCn1c(=O)[nH]/c(=N\c2ccc(Oc3ccc(C#N)cc3)nc2)n(Cc2ccc(Cl)cc2)c1=O [Compound I-2613],137 nM
10,CCn1c(=O)[nH]/c(=N\c2ccc(O[C@@H]3C[C@@H](C(=O)OC)N(C(=O)OC(C)(C)C)C3)cc2)n(Cc2ccc(Cl)cc2)c1=O [Compound I-2265],299 nM
11,CCn1c(=O)[nH]/c(=N\c2ccc(Oc3cccc(/C=C/C(=O)O)c3)cc2)n(Cc2ccc(Cl)cc2)c1=O [Compound I-2231],3 nM
12,Cc1ccc(/N=c2\[nH]c(=O)n(C[C@H](C)C(=O)O)c(=O)n2Cc2ccc(Cl)cc2)cc1C(F)(F)F [Compound I-0843],183 nM
13,O=c1[nH]/c(=N\c2ccc(Oc3noc(C4CC4)n3)cc2)n(Cc2ccc(Cl)cc2)c(=O)n1C[C@H](O)CO [Compound I-2596],51 nM
14,CCn1c(=O)[nH]/c(=N\c2ccc(Oc3ccc(NCC(=O)NC)nc3)cc2)n(Cc2ccc(Cl)cc2)c1=O [Compound I-2626],5 nM
15,CCn1c(=O)[nH]/c(=N\c2ccc(Oc3cc(F)cc(C(N)=O)c3)cc2)n(Cc2ccc(Cl)cc2)c1=O [Compound I-2233],2 nM
16,CNC(=O)[C@H](C)n1c(=O)[nH]/c(=N\c2ccc(Oc3ccon3)cc2)n(Cc2ccc(Cl)cc2)c1=O [Compound I-2535],44 nM
17,COC(=O)[C@@H](C)Cn1c(=O)[nH]/c(=N\c2ccc(C(C)C)c(Cl)c2)n(Cc2ccc(C)cc2)c1=O [Compound I-1493],444 nM
18,Cc1ccc(Cn2c(=O)n(C)c(=O)[nH]/c2=N\c2ccc(Oc3cncc(C(=O)O)n3)cc2)cc1 [Compound I-2475],12 nM
19,CCOC(=O)Cn1c(=O)[nH]/c(=N\c2ccc(Oc3ccon3)cc2)n(Cc2ccc(Cl)cc2)c1=O [Compound I-2627],7 nM
20,CCn1c(=O)[nH]/c(=N\c2ccc(Oc3ccnc(C(=O)NC)c3)c(F)c2)n(Cc2ccc(Cl)cc2)c1=O [Compound I-2432],2 nM
